Measured values published in PubChem BioAssay AID1963853 (Molecular Pharmacology Branch, DTP, NCI, 2024).
Where “and” joins values, the source holds several entries; their conditions need not be identical. Identical values can stand only once.

System: 266295-075-R-J1-PDC spheroid viability
Assay: Anticancer human tumor 266295-075-R-J1-PDC patient-derived head and neck squamous carcinoma cell line growth inhibition [POLQ]
Conditions: spheroids with HUVEC and MSC; for viability, T/C: stronger effect = lower value
Protocol: Multicellular complex tumor spheroid response to Polymerase (POL) inhibitors (novobiocin, ART-558, RP6685) in combination with a variety of drugs and investigational agents in selected tumor cell lines
The POL inhibitors (novobiocin, ART-558, and RP6685) were evaluated both individually and in combination with standard of care and investigational anticancer small molecules within a complex spheroid model of solid tumors. . Complex spheroids include a stromal component modeled by human endothelial cells (HUVEC) and fibroblasts modeled by human mesenchymal stem cells (MSCs). The concentration ranges selected for each drug and investigational agent were based upon clinically achievable concentrations if the clinical Cmax of the agent was known.
Compounds. The drugs and investigational agents: novobiocin (NSC847541), ART-558 (NSC835418), RP-6685 (NSC848927), peposertib (NSC802822), ceralasertib (NSC780249), elimusertib (NSC800525), camonsertib (NSC841442), AZD-1390 (NSC803789), olaparib (NSC753686), talazoparib (NSC767125), rucaparib (NSC756644), sotorasib (NSC818433), MRTX-1133 (NSC836407), SN-38 (NSC673596), topotecan (NSC609699), epotoside (NSC141540), doxorubicin (NSC123127), gemcitabine (NSC613327), 5-fluorouracil (NSC19893), paclitaxel (NSC125973), vemurafenib (NSC761431), MSA-2 (NSC828583), SN-011 (NSC837082), adavosertib (NSC754352), prexasertib (NSC758257), carboplatin (NSC241240) and oxaliplatin (NSC266046), were obtained from the National Cancer Institute (NCI) Developmental Therapeutics Program Chemical Repository (21). The FDA-approved anticancer drug set is available from the Developmental Therapeutics Program at https://dtp.cancer.gov/organization/dscb/obtaining/. […] The stock solutions were prepared in dimethyl sulfoxide (DMSO, Sigma-Aldrich, St. Louis, MO, cat. D2650), except for the platinum compounds which were prepared in saline (Quality Biological, Gaithersburg, MD, cat. 114-055-101), at 800-fold the tested concentration and stored at -70 degrees C prior to their use. All drugs and investigational agents were tested over a range starting from a high concentration at or near the clinical Cmax and decreasing in half-log increments. If the clinical Cmax for an agent had not been determined, the highest concentration tested was 10 microM, except for SN-38, which was tested at a high concentration of 1 microM.
Cell Culture. All cells were maintained in an incubator at 37 degrees C and 5% CO2 with 95% humidity. The PDC lines were cultured according to standard operating procedures established by the NCI PDMR (https://pdmr.cancer.gov). Table 3 of the manuscript, lists the cell lines along with the number of the three cell types plated to form the mct-spheroids and media for tumor cell growth. After thawing, all PDC lines, except 997537-175-T-J1-PDC and 415267-285-R-J2-PDC, were cultured in Matrigel-coated flasks prepared with a working solution of 1X Ham's F-12 nutrient mix, without supplementation (Thermo Fisher Scientific, cat. 11765054), 100 U/mL penicillin-streptomycin (Thermo Fisher Scientific, cat. 15140122), and 2.5% Matrigel (Corning Inc., Corning, NY, cat. 354248) for the first three passages. The two PDC lines 997537-175-T-J1-PDC and 415267-285-R-J2-PDC were cultured on uncoated flasks. The 857933-349-R-J2-PDC line was cultured in 6C/Colon 1B media containing advanced DMEM/F-12 (Thermo Fisher Scientific, cat. 12634028), 10 mM HEPES (Thermo Fisher Scientific, cat. 15630080), 1X GlutaMAX supplement (Thermo Fisher Scientific, cat. 35050061), 0.1 mg/mL primocin (InvivoGen, San Diego, CA, cat. ant-pm-2), 10% defined fetal bovine serum, heat inactivated (HyClone Laboratories Inc., Logan, UT, cat. SH30070.03HI), 50% L-WRN conditioned media (ATCC, cat. CRL-3276), 1.25 mM N-Acetyl-L-cysteine (Sigma-Aldrich, cat. A9165), 10 mM nicotinamide (Sigma-Aldrich, cat. N0636), 1X B-27 supplement (Thermo Fisher Scientific, cat. 17504044), 1X N-2 supplement (Thermo Fisher Scientific, cat. […]
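Further: spheroids exposed to compounds for seven days before readout.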

## COc1ccc([C@@H](O)c2cc(-c3ncnc4cc(N5CCOCC5)ccc34)c(F)cc2Cl)nn1 + COC1C(OC(N)=O)C(O)C(Oc2ccc3c(O)c(NC(=O)c4ccc(O)c(CC=C(C)C)c4)c(=O)oc3c2C)OC1(C)C
Curve of first compound, second compound 0.0316 µM
  IC50: 3.45 µM
Curve of first compound, second compound 0.1 µM
  IC50: 4.06 µM
Curve of first compound, second compound 0.316 µM
  IC50: 4.31 µM
Curve of first compound, second compound 1 µM
  IC50: 3.67 µM
Curve of first compound, second compound 3.16 µM
  IC50: 2.48 µM
Curve of first compound, second compound 10 µM
  IC50: 2.74 µM
Second compound 0.0316 µM, first compound 0.0316 µM
  viability, T/C: 97.3%
Second compound 0.0316 µM, first compound 0.1 µM
  viability, T/C: 84.5%
Second compound 0.0316 µM, first compound 0.316 µM
  viability, T/C: 76.6%
Second compound 0.0316 µM, first compound 1 µM
  viability, T/C: 62.7%
Second compound 0.0316 µM, first compound 3.16 µM
  viability, T/C: 49.9%
Second compound 0.0316 µM, first compound 10 µM
  viability, T/C: 40.7%
Second compound 0.1 µM, first compound 0.0316 µM
  viability, T/C: 107%
Second compound 0.1 µM, first compound 0.1 µM
  viability, T/C: 105%
Second compound 0.1 µM, first compound 0.316 µM
  viability, T/C: 73.1%
Second compound 0.1 µM, first compound 1 µM
  viability, T/C: 74.5%
Second compound 0.1 µM, first compound 3.16 µM
  viability, T/C: 47.5%
Second compound 0.1 µM, first compound 10 µM
  viability, T/C: 43.7%
Second compound 0.316 µM, first compound 0.0316 µM
  viability, T/C: 104%
Second compound 0.316 µM, first compound 0.1 µM
  viability, T/C: 85.9%
Second compound 0.316 µM, first compound 0.316 µM
  viability, T/C: 75.2%
Second compound 0.316 µM, first compound 1 µM
  viability, T/C: 64.7%
Second compound 0.316 µM, first compound 3.16 µM
  viability, T/C: 51.8%
Second compound 0.316 µM, first compound 10 µM
  viability, T/C: 43.4%
Second compound 1 µM, first compound 0.0316 µM
  viability, T/C: 91.1%
Second compound 1 µM, first compound 0.1 µM
  viability, T/C: 96%
Second compound 1 µM, first compound 0.316 µM
  viability, T/C: 68.2%
Second compound 1 µM, first compound 1 µM
  viability, T/C: 73.6%
Second compound 1 µM, first compound 3.16 µM
  viability, T/C: 48.2%
Second compound 1 µM, first compound 10 µM
  viability, T/C: 39.8%
Second compound 3.16 µM, first compound 0.0316 µM
  viability, T/C: 95.9%
Second compound 3.16 µM, first compound 0.1 µM
  viability, T/C: 84.6%
Second compound 3.16 µM, first compound 0.316 µM
  viability, T/C: 83.2%
Second compound 3.16 µM, first compound 1 µM
  viability, T/C: 62.2%
Second compound 3.16 µM, first compound 3.16 µM
  viability, T/C: 46%
Second compound 3.16 µM, first compound 10 µM
  viability, T/C: 40.2%
Second compound 10 µM, first compound 0.0316 µM
  viability, T/C: 112%
Second compound 10 µM, first compound 0.1 µM
  viability, T/C: 75%
Second compound 10 µM, first compound 0.316 µM
  viability, T/C: 75.2%
Second compound 10 µM, first compound 1 µM
  viability, T/C: 63%
Second compound 10 µM, first compound 3.16 µM
  viability, T/C: 50.9%
Second compound 10 µM, first compound 10 µM
  viability, T/C: 37.3%

## COc1cc(C2c3cc4c(cc3C(OC3OC5COC(C)OC5C(O)C3O)C3COC(=O)C23)OCO4)cc(OC)c1O (centres undefined)
Compound 0.0316 µM
  viability, T/C: 84.2% and 123% and 88.1%
Compound 0.1 µM
  viability, T/C: 80.5% and 94.5% and 116%
Compound 0.316 µM
  viability, T/C: 92.3% and 110% and 112%
Compound 1 µM
  viability, T/C: 77.7% and 88% and 98.4%
Compound 3.16 µM
  viability, T/C: 79.7% and 84.9% and 93.1%
Compound 10 µM
  viability, T/C: 72.6% and 84.4% and 82.6%
Curve of compound
  IC50: > 10 µM
